# Measurements: PMC5651866, “Halogenated Chrysins Inhibit Dengue and Zika Virus Infectivity” (Scientific Reports, 2017)
# Assays:
# [1] = system: DENV2; conditions: cell-based assay; cited from earlier work
# [2] = system: DENV2 NGC; assay: Primary screening: compounds added to DENV2 infected LLC/MK2 cells, plaque titration of culture supernatants; assay type: cell-based, Dengue virus; conditions: for inhibition at 10 µM / inhibition at 25 µM: Dengue virus, DENV2, LLC-MK2, read-out: DENV2 inhibition (%, means ± SEM); for inhibition of virus production: 10 μM and 25 μM, summary of Table 1
# Description: In this study, we selected 8 flavonoid derivatives (Fig. 1) and tested their effect on DENV2 NGC in a LLC/MK2 cell-based system. Briefly, the compounds at final concentrations of 10 μM and 25 μM in DMSO were added to DENV2 infected LLC/MK2 cells and the effect on viral particle production was measured by plaque titration of the culture supernatants. […] We also tested cytotoxicity of FV13, FV14, and CH1 to verify the viral inhibition in LLC/MK2 cells (Table 2). The viabilities of FV13 treated cells were 81.00 ± 2.69% and 59.40 ± 2.42%, at 10, and 25 µM respectively, whereas the values for FV14 treated cells were 60.24 ± 3.31% and 60.86 ± 3.57%. We also examined Vero, THP-1, HepG2, and HEK-293 cell viabilities in the presence of selected compounds (Table 2).
# LLC/MK2 cells were seeded at 5 × 10^4 cells into each well of 24-well plate and incubated overnight at 37 °C under 5% CO2. Cells were infected with DENV2 at the multiplicity of infection (M.O.I.) of 0.1, unless indicated otherwise, for 1 h with gentle rocking every 15 min. Cells were washed with phosphate buffer saline (PBS) and incubated with 1 ml of MEM medium supplemented with 1% FBS as previously described. The compounds were prepared in dimethylsulfoxide (DMSO) at the indicated concentrations before addition to viral infected cells. Supernatants were collected after 5 day incubation and analyzed by plaque titration. In primary screening, DMSO-treated cells served as the untreated control. Compounds that inhibited virus production by ≥90% were selected for further characterization.
# [3] = design: method as in PMID 27098862, PMID 19397994; conditions: animals and humans; in words; cited from earlier work
# [4] = Cytotoxicity study (CellTiter 96 AQueous One) in LLC/MK2 cells; assay type: cell-based; conditions: rhesus monkey; for viability at 48 h, 10 µM / viability at 48 h, 25 µM: read-out: Cells viability (%, means ± SEM) LLC/MK2
# Description: (§1) The cytotoxicity of active compounds was tested on LLC-MK2, Vero, THP-1, HEK-293, HepG2 and C6/36 cell lines. Each cell line was seeded at 1 × 10^4 cells per well in 96-well plates and incubated overnight. The compounds were added at the indicated concentrations and the cells were incubated for 48 h, unless indicated otherwise. Cell viability was analyzed using CellTiter 96® AQueous One Solution Cell Proliferation Assay kit (Promega, Wisconsin-Madison, USA) according to manufacturer’s protocol. The plate was read at the A 450 in a VICTORTM × 3 microplate reader (PerkinElmer, Massachusetts, USA). Percent cell viability in compound-treated wells was calculated using reference DMSO-treated cells as a 100% cell viability control. The CC50 values of LLC/MK2 cells were calculated using nonlinear regression analysis. Results were reported as means and standard error of the means (SEM) of CC50 values of three independent experiments in which each drug concentration was tested in triplicate.
# [5] = system: LLC/MK2 cells; assay: as above; assay type: cell-based; conditions: LLC/MK2 cell viability at 120 h versus 48 h; in words
# Description: as §1
# [6] = Cytotoxicity study (CellTiter 96 AQueous One) in Vero cells; assay type: cell-based; conditions: African green monkey, 48 h, read-out: Cells viability (%, means ± SEM) Vero
# Description: as §1
# [7] = system: Vero cells; assay: as above; assay type: cell-based; conditions: 10 and 25 µM; in words
# Description: as §1
# [8] = Cytotoxicity study (CellTiter 96 AQueous One) in THP-1 cells; assay type: cell-based; conditions: human, read-out: Cells viability (%, means ± SEM) THP-1
# Description: as §1
# [9] = Cytotoxicity study (CellTiter 96 AQueous One) in HepG2 cells; assay type: cell-based; conditions: human, read-out: Cells viability (%, means ± SEM) HepG2
# Description: as §1
# [10] = Cytotoxicity study (CellTiter 96 AQueous One) in HEK-293 cells; assay type: cell-based; conditions: human, read-out: Cells viability (%, means ± SEM) HEK-293
# Description: as §1
# [11] = system: DENV1 (16007); assay: Antiviral efficacy (EC50) in virus infected LLC/MK2 cells, plaque assay; assay type: cell-based, Dengue virus; conditions: Dengue virus, DENV1, LLC-MK2
# Description: (§2) Compound at various concentrations were added to virus infected LLC/MK2 cells and viral titers were accessed by plaque titration of supernatants as previously described.
# (§3) LLC/MK2 cells were seeded at 5 × 10^4 cells into each well of 24-well plate and incubated overnight at 37 °C under 5% CO2. Cells were infected with DENV2 at the multiplicity of infection (M.O.I.) of 0.1, unless indicated otherwise, for 1 h with gentle rocking every 15 min. Cells were washed with phosphate buffer saline (PBS) and incubated with 1 ml of MEM medium supplemented with 1% FBS as previously described. The compounds were prepared in dimethylsulfoxide (DMSO) at the indicated concentrations before addition to viral infected cells. Supernatants were collected after 5 day incubation and analyzed by plaque titration[9].
# (§4) Compounds were prepared in DMSO at 8–12 different concentrations and added to virus infected cells as previously described. Supernatants were collected and the EC50 values were calculated from nonlinear regression analysis.
# [12] = system: DENV2 (NGC); assay: as above; assay type: cell-based, Dengue virus
# Description: as §2, §3, §4
# [13] = system: DENV3 (16562); assay: as above; assay type: cell-based, Dengue virus
# Description: as §2, §3, §4
# [14] = system: DENV4 (c0036); assay: as above; assay type: cell-based, Dengue virus
# Description: as §2, §3, §4
# [15] = system: ZIKV (SV0010/15); assay: as above; assay type: cell-based, Zika virus
# Description: as §2, §3, §4
# [16] = Cytotoxicity study, summary statements over human-derived cell lines; assay type: cell-based; conditions: HepG2 and HEK-293 cells, THP-1, HepG2, HEK-293, 10 and 25 µM, Table 2
# Description: as §1
# [17] = system: BHK-21/DENV2 replicon cells; assay: Replicon inhibition assay, RT-qPCR of replicon RNA; assay type: cell-based; conditions: Dengue virus, DENV2, BHK-21, 72 h, read-out: inhibition of DENV2 replicon replication
# Description: Next, we studied FV13 inhibition in a DENV2 replicon replication system to investigate whether translation and replication could be implicated as drug targets. BHK-21/DENV2 replicon cells[28] were treated with 5 and 10 µM FV13 and incubated for 72 h before measuring replication efficiency by quantifying replicon RNA. Ribavirin, a known dengue virus replication inhibitor[29], was used as a positive control.
# After supernatant collection, the remaining cells in experimental plates were extracted for viral RNAs using TRIzol reagent (Invitrogen, California, USA) according to the manufacturer’s protocol. The samples were loaded into the Direct-zol™ RNA MiniPrep (Zymo research, California, USA) and quantified by Nanodrop spectrophotometry (Eppendorf, New York, USA). The RT-qPCR was performed with a Step-OnePlus Real-Time PCR System (Applied Biosystems, California, USA.) with 1 × Power SYBRGreen PCR Master Mix, 400 nM each of capsid primers[40] or 250 nM of NS1 primers[41] and 0.1 µg of total RNA. The reactions were then cycled at 48 °C 30 min and 95 °C 10 min, followed by 45 cycles of 95 °C for 20 s (denaturation), 55 °C for 30 s (annealing), 72 °C for 30 s (extension). Each sample was analyzed in triplicated and results were confirmed by two independent experiments.
# BHK-21 cells expressing a DENV2 replicon (BHK-21/DENV2) were maintained in minimal essential medium (MEM) supplemented with 10% fetal bovine serum (FBS), and 0.3 mg/ml G418 (Bio Basic Canada, Ontario, Canada). The protocol was adapted from Boonyasuppayakorn et al., 2014 [28]. Briefly, cells (5 × 10^4/well) were seeded into 24-well plates and were incubated for 1 day at 37 °C in a humidified CO2 chamber followed by addition of the compounds in 1% DMSO at final concentrations of 5 µM and 10 µM. DMSO (1%) alone was used as the no-inhibitor control (0% inhibition) and the reference compound was ribavirin (TargetMol, Massachusetts, USA) at a final concentration of 5 µM or 10 µM. Cells were incubated at 37 °C for 72 h and lysed to quantify DENV2 replicons by RT-qPCR. Data were reported as percent inhibition compared with ribavirin, as a reference compound and DMSO, 0% inhibition. Results were confirmed by three independent experiments.
compound,measurement,setting,value
O=c1c(O)c(-c2ccc(O)c(O)c2)oc2cc(O)cc(O)c12 [quercetin],EC50,[1],118 µM
O=C(O)[C@H]1O[C@@H](Oc2cc3oc(-c4ccccc4)cc(=O)c3c(O)c2O)[C@H](O)[C@@H](O)[C@@H]1O [Baicalin],EC50,[1],30.2 µM
"O=c1cc(-c2ccccc2)oc2cc(O)cc(O)c12 [FV2, 5,7-dihydroxyflavone]",inhibition at 10 µM,[2],43 ± 3%
same,inhibition at 25 µM,[2],92.8 ± 3.06%
same,oral bioavailability,[3],poor
COc1cc(O)c2c(c1)OC(c1ccccc1)CC2=O (stereo not shown) [FN2],inhibition at 10 µM,[2],62 ± 2.45%
same,inhibition at 25 µM,[2],85 ± 3%
O=C(/C=C/c1ccc(O)cc1)c1ccccc1O [CH2],inhibition at 10 µM,[2],52 ± 8.49%
same,inhibition at 25 µM,[2],76 ± 4.24%
"O=c1cc(-c2ccccc2)oc2c(I)c(O)c(I)c(O)c12 [FV14, 6,8-diiodo-5,7-dihydroxyflavone]",inhibition of virus production,[2],> 99%
same,inhibition at 10 µM,[2],99.48 ± 0.43%
same,inhibition at 25 µM,[2],99.63 ± 0.03%
same,"viability at 48 h, 10 µM",[4]; LLC/MK2 cells,60.2 ± 3.31%
same,"viability at 48 h, 25 µM",[4]; LLC/MK2 cells,60.9 ± 3.57%
same,CC50 at 48 h,"[4]; LLC/MK2 cells, 48 h incubation, read-out: CC50 (cytotoxic concentration)",42.5 ± 2.53 µM
same,effect of long term incubation on cytotoxicity,[5],significantly greater cytotoxicity at 120 h
same,"viability at 48 h, 10 µM",[6]; Vero cells,45.4 ± 1.17%
same,"viability at 48 h, 25 µM",[6]; Vero cells,34.1 ± 2.18%
same,sensitivity of Vero cells to the compound,[7],very sensitive
same,"viability at 48 h, 10 µM",[8]; THP-1 cells,86.1 ± 2.76%
same,"viability at 48 h, 25 µM",[8]; THP-1 cells,93.9 ± 7%
same,"viability at 48 h, 10 µM",[9]; HepG2 cells,85.6 ± 3.04%
same,"viability at 48 h, 25 µM",[9]; HepG2 cells,87.01 ± 0.52%
same,"viability at 48 h, 10 µM",[10]; HEK-293 cells,80.5 ± 3.18%
same,"viability at 48 h, 25 µM",[10]; HEK-293 cells,48.4 ± 5.76%
same,EC50,[11],2.3 ± 0.92 µM
same,S.I. Selectivity index (CC50/EC50),"[12]; DENV2 (NGC), CC50 in LLC/MK2",20.37
same,EC50,"[12]; Dengue virus, DENV2, LLC-MK2",2.19 ± 0.31 µM
same,S.I. Selectivity index (CC50/EC50),"[13]; DENV3 (16562), CC50 in LLC/MK2",43.64
same,EC50,"[13]; Dengue virus, DENV3, LLC-MK2",1.02 ± 0.31 µM
same,S.I. Selectivity index (CC50/EC50),"[14]; DENV4 (c0036), CC50 in LLC/MK2",34.50
same,EC50,"[14]; Dengue virus, DENV4, LLC-MK2",1.29 ± 0.6 µM
same,S.I. Selectivity index (CC50/EC50),[15]; CC50 in LLC/MK2,32.14
same,EC50,"[15]; Zika virus, LLC/MK2, plaque assay in 24-well plates",1.39 ± 0.11 µM
same,viability at 48 h,[16],> 80%
O=c1c(O)c(-c2ccc(O)c(O)c2)oc2cc(O)ccc12 [fisetin],EC50,[1],192 µM
COc1cc(OC)c2c(=O)cc(-c3ccccc3)oc2c1 [FV6],inhibition at 10 µM,[2],55 ± 3%
same,inhibition at 25 µM,[2],76 ± 7.35%
"NC(=O)c1ncn([C@@H]2O[C@H](CO)[C@@H](O)[C@H]2O)n1 [ribavirin, reference compound]",inhibition at 5 µM,[17],87.4 ± 10.7%
same,inhibition at 10 µM,[17],89.9 ± 4.83%
COc1cc(O)c2c(=O)c(OC)c(-c3ccccc3)oc2c1 [FV4],inhibition at 10 µM,[2],38 ± 6.48%
same,inhibition at 25 µM,[2],61 ± 3%
COc1ccc(/C=C/C(=O)c2ccccc2O)cc1 [CH1],inhibition of virus production,[2],> 99%
same,inhibition at 10 µM,[2],99.78 ± 0.08%
same,inhibition at 25 µM,[2],99.75 ± 0.15%
same,"viability at 48 h, 10 µM",[4],61.5 ± 6.43%
same,"viability at 48 h, 25 µM",[4],59.1 ± 7.42%
same,"viability at 48 h, 10 µM",[6],> 100%
same,"viability at 48 h, 25 µM",[6],80.4 ± 9.81%
same,sensitivity of Vero cells to the compound,[7],not
same,"viability at 48 h, 10 µM",[8],93.1 ± 4.99%
same,"viability at 48 h, 25 µM",[8],84.8 ± 2.38%
same,"viability at 48 h, 10 µM",[9],71 ± 1.71%
same,"viability at 48 h, 25 µM",[9],35.3 ± 1.34%
same,"viability at 48 h, 10 µM",[10],98.3 ± 2.95%
same,"viability at 48 h, 25 µM",[10],41.3 ± 0.54%
O=C1C[C@@H](c2ccc(O)cc2)Oc2cc(O)cc(O)c21 [Naringenin],EC50,[1],18 µM
O=c1cc(-c2ccccc2)oc2cc(O)c(O)c(O)c12 [baicalein],EC50,[1],23.9 µM
